These results are taken from patent publication US8153581B2, “Process for producing an injectable medicament preparation” (KTB Tumorforschungs GmbH, priority 1999, dated 2012).

For data set [1], the target named is T1, albumin (Homo sapiens, UniProt P02768). The conditions noted are these: 37° C.
Protocol: In this experiment, the plasma sample was separated, after the incubation had taken place, on a POROS®-20 anion exchange column (the proteins were detected at 254 nm while the anthracycline was detected by fluorescence).
1.4 mg of 2 (Mr 1374) are dissolved, at room temperature, in 1.0 ml of phosphate buffer (0.15 M NaCl, 0.004 M sodium phosphate, pH 6.5) (1000 μm solution).
Data set [2] has as its system RENCA, renal cell carcinoma. Put plainly: RENCA (renal cell carcinoma) model, antitumour activity. The data set is classed as in vivo, Balc/c mice. From the text:
(§1) The biological data listed below clarify the in vivo activity of DOXO-HYD as compared with that of free doxorubicin: in what is termed the RENCA (renal cell carcinoma)-model, doxorubicin and DOXO-HYD were compared with each other, at approximately equitoxic doses, as regards their antitumour activity (intravenous therapy 10 days after injecting about 1 million kidney carcinoma cells into the left kidney).
(§2) Animals: Balc/c mice, female; Tumour: RENCA, renal cell carcinoma
(§3) Therapy: Intravenous (i.v.) on day (d) 10, 13, 17 and 20, end of experiment on d24

A short description of data set [3]: RENCA model, body weight change. The data set is classed as in vivo, Balc/c mice. The conditions noted are these: i.v. on d 10, 13, 17 and 20; approximately equitoxic doses.
Text: as §1, §2, §3

For data set [4], the target named is T1, albumin. Put plainly: Incubation with human plasma, gel filtration chromatography (Superdex 200). More on the design: with 1.0 ml of human plasma; from tissue; host or cells: human blood plasma. The conditions noted are these: 250 μl of 100 μM solution with 1.0 ml human plasma, 5 minutes. The data set is classed as in vitro ADME.
Where [5] appears, read: as compared with the control group and the doxorubicin-treated group, 4 × 20 mmol/kg i.v.

Like-named read-outs stand apart in the source and are kept apart here.

T1 sequence (P02768 25-609): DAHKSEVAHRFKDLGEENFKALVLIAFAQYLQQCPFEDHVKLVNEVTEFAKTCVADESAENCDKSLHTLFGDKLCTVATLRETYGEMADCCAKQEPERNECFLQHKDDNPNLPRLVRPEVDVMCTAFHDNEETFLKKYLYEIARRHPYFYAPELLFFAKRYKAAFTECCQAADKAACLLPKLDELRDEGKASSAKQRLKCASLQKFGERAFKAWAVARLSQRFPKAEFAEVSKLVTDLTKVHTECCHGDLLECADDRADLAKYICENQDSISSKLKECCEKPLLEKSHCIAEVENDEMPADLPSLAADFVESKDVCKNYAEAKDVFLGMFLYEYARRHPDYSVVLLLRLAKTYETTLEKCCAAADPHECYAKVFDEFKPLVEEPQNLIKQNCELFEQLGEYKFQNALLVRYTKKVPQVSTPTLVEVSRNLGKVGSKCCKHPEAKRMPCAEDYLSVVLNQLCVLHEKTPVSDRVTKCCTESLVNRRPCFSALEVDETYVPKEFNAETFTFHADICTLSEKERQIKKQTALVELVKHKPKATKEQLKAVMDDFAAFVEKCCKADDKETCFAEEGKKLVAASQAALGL

Take `COc1cccc2c1C(=O)c1c(O)c3c(c(O)c1C2=O)C[C@@](O)(C(CO)=NNC(=O)CCCCCN1C(=O)C=CC1=O)C[C@@H]3O[C@H]1C[C@H](N)[C@H](O)[C@H](C)O1` [DOXO-EMCH, 6-maleimidocaproic acid hydrazone derivative of doxorubicin]: the “binding to albumin in human plasma” value at albumin [1] (250μ of 2000 μM solution with 1.0 ml human plasma, 30 seconds) was “majority of the DOXO-EMCH is bound to albumin”.
With `COc1cccc2c1C(=O)c1c(O)c3c(c(O)c1C2=O)C[C@@](O)(/C(CO)=N/NC(=O)Cc1ccc(N2C(=O)C=CC2=O)cc1)C[C@@H]3OC1CC(C)C(O)C(N)C1.Cl` (some centres unmarked) [DOXO-HYD], the antitumour activity entry in data set [2] (RENCA model, i.v. d 10, 13, 17, 20, 4 × 20 mmol/kg, end d24) is “very good antitumour activity”. Besides, in data set [2] (setting [5]), the kidney tumour volume result is listed as “marked reduction” and the “number of lung metastases” value was “marked reduction”. In addition, the “covalent binding to albumin in human blood plasma” value on albumin [1] (human blood plasma, 5 minutes of incubation) is listed as “most of the DOXO-HYD is covalently bonded to the albumin”. Also, the “Average decrease in body weight (%) d 1-24” value in data set [3] is −15%.
`COc1cccc2c1C(=O)c1c(O)c3c(c(O)c1C2=O)C[C@@](O)(C(=O)CO)C[C@@H]3O[C@H]1C[C@H](N)[C@H](O)[C@H](C)O1` [Doxorubicin, doxorubicin, reference compound]: in data set [3], the “Average decrease in body weight (%) d 1-24” value is −15%.
With `O=C(O)c1cc(N2C(=O)C=CC2=O)ccc1-c1c2ccc(=O)cc-2oc2cc(O)ccc12` [fluoresceinmaleimide], on albumin [4], the “binding to albumin in human plasma” value is given as “majority of the fluoresceinmaleimide is bound to albumin”.
